Drawing on ChEMBL document CHEMBL1154370, “Palmyramide A, a cyclic depsipeptide from a Palmyra Atoll collection of the marine cyanobacterium Lyngbya majuscula” (J Nat Prod, 2010), this text covers IC50 for one molecule.

One assay has as its system NCI-H460. The assay can be described thus: Cytotoxicity against human H460 cells after 48 hrs by MTT assay. To be noted: NCI-H460, 48 h. Format: functional, cell-based.
Assay [1] can be described thus: Inhibition of voltage-gated sodium channel in mouse Neuro2a cells assessed as suppression of quabain and veratridine-induced sodium overload cytotoxicity after 24 hrs by MTT assay. The class given is cell-based. The settings on record: N2a.

As to `CCC[C@H]1OC(=O)[C@H](C(C)C)NC(=O)[C@@H](C(C)C)N(C)C(=O)[C@@H]2CCCN2C(=O)[C@H](Cc2ccccc2)OC(=O)[C@H](C)OC(=O)C1(C)C` [PALMYRAMIDE A], the values for the IC50 (in the assay with NCI-H460; in assay [1]) were 39.7 µM and 17.2 µM, respectively.
